Reference: patent US9334263B2, “Compositions useful for treating disorders related to kit” (BLUEPRINT MEDICINES CORPORATION, priority 2013, dated 2016)

Key:
[1] = target: T1, D816V Kit (Homo sapiens, UniProt P10721, D816V); experiment: Kit D816V assay at Km (Caliper electrophoretic mobility shift); format: biochemical; conditions: 15 uM ATP, 25 C, 90 minutes
T1 construct: purchased Carna Bioscience 08-156
Method: In order to assess the activity of chemical compounds against the relevant kinase of interest, the Caliper LifeSciences electrophoretic mobility shift technology platform is used. Fluorescently labeled substrate peptide is incubated in the presence of kinase and ATP so that a […] proportion of the peptide is phosphorylated. At the end of the reaction, the mix of phosphorylated (product) and non-phosphorylated (substrate) peptides are passed through the microfluidic system of the Caliper EZ Reader 2, under an applied potential difference. The presence of the phosphate group on the product peptide provides a difference in mass and charge between those of the substrate peptide, resulting in a separation of the substrate and product pools in the sample. As the pools pass a LEDS within the instrument, these pools are detected and resolved as separate peaks. The ratio between these peaks therefore reflects the activity of the chemical matter at that concentration in that well, under those conditions.
The reaction was stopped by the addition of 70 ul of Stop buffer (100 mM HEPES pH 7.5, 0.015% Brij 35, 35 mM EDTA and 0.2% of Coating Reagent 3 (Caliper Lifesciences)). The plate was then read on a Caliper EZReader 2 (protocol settings: −1.9 psi, upstream voltage −700, downstream voltage −3000, post sample sip 35 s).

[2] = target: T2, Kit D816V (HMC1.2 cells, Kit V560G and D816V) (Homo sapiens, UniProt P10721, D816V/V560G); experiment: HMC1.2 autophosphorylation assay (AlphaLISA, phospho-Y719 c-Kit); format: cell-based; conditions: Kit autophosphorylation at tyrosine 719, 90 minutes, read-out: Cellular Activity
T2 construct: endogenous in cells; host or cells: HMC1.2 cells
Method: HMC1.2 Autophosphorylation Assay:
10,000 HMC1.2 cells were incubated in 22 ul culture media (phenol-red free IMDM, no serum) in each well of a 384-well plate and serum starved overnight in a tissue culture incubator (5% CO2, 37° C.). A 10-point dose concentration series of compound (25 uM-95.4 pM) were then added to the cells in a volume of 3.1 ul to each well (0.25% DMSO final concentration). After 90 minutes, 6 ul of 5× AlphaLISA Lysis Buffer (Perkin Elmer) supplemented with a protease and phosphatase inhibitor cocktail (Cell Signaling Technologies) was added to each well and shaken at 450 rpm for 15 minutes at 4° C. 10 ul of phospho-Y719 c-Kit and total c-Kit antibodies (15 nM final concentration, Cell Signaling Technologies) and 50 ug/ml AlphaLISA rabbit acceptor beads (Perkin Elmer) were added to each well and shaken at 300 rpm at room temperature for 2 hours. 10 ul of 100 ug/ml streptavidin donor beads (Perkin Elmer) were added to each well, blocked from light with aluminum adhesive and shaken at 300 rpm at room temperature for 2 hours. Fluorescence signal was obtained on Envision (Perkin Elmer) by AlphaScreen 384 well HTS protocol.
This cell line contains Kit mutated at positions V560G and D816V resulting in constitutive activation of the kinase. The following compounds were tested in an assay to measure direct inhibition of Kit D816V kinase activity by assaying Kit autophosphorylation at tyrosine 719 on the Kit protein.

T2 sequence (P10721 26-976 V560G/D816V): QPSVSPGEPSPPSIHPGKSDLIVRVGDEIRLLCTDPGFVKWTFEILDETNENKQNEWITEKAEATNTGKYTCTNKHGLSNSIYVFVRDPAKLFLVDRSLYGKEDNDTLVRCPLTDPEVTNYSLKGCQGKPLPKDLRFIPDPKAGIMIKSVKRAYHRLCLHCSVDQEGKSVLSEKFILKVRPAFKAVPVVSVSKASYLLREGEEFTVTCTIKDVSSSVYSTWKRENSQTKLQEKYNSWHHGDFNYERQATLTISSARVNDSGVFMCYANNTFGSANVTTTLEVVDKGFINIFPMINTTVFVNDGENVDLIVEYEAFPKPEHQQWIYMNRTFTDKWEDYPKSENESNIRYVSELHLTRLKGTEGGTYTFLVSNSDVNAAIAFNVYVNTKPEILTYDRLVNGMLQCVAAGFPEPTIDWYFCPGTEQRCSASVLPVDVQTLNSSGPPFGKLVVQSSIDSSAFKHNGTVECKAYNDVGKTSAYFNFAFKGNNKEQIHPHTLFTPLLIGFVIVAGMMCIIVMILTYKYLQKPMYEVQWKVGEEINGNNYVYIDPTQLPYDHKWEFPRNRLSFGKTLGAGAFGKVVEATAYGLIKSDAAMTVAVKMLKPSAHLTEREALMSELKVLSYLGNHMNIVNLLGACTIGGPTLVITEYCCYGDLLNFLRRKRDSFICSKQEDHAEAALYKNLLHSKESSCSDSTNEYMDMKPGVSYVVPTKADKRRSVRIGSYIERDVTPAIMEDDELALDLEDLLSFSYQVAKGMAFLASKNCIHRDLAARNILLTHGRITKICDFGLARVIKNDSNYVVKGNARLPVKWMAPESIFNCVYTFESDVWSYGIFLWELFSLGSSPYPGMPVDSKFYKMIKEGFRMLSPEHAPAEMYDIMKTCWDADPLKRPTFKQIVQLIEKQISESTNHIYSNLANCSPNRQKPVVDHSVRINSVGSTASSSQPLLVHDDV
T1 sequence (P10721 26-976 D816V): as the sequence (P10721 26-976 V560G/D816V) above, with G535V counted along it

| SMILES | IC50 [1] | IC50 [2] |
| --- | --- | --- |
| Cn1cc(Nc2ncnc(N3CCN(c4ncc([C@@](C)(N)c5ccc(F)cc5)cn4)CC3)n2)cn1 [Compound 36] | < 1 nM | < 10 nM |
| c1cnc(N2CCN(c3ncnc(Nc4cnn(C[C@@H]5CNCCO5)c4)n3)CC2)nc1 [Compound 6] | > 100 nM | > 10000 nM |
| c1ccc(Cc2cnc(N3CCN(c4ncnc(Nc5cnn(C[C@@H]6COCCN6)c5)n4)CC3)nc2)cc1 [Compound 126] | 1.01 to 10 nM | 100 to 1000 nM |
| c1nc(Nc2cnn(CC3CNCCO3)c2)nc(N2CCN(c3ncc(C4CC4)cn3)CC2)n1 (stereo not drawn) [Compound 19] | 10 to 100 nM | > 10000 nM |
| Cc1c(Nc2ncnc(N3CCN(c4ncc(Sc5ccc(F)cc5)cn4)CC3)n2)cnn1C[C@H](C)O [Compound 151] | 1.01 to 10 nM | 10 to 100 nM |
| C[C@H](O)Cn1cc(Nc2ncnc(N3CCN(c4ncc(Cc5ccccc5)cn4)CC3)n2)cn1 [Compound 33] | 1.01 to 10 nM | 10 to 100 nM |
| Cn1cc(Nc2ncnc(N3CCN(c4ncc([C@](C)(O)c5ccc(F)cc5)cn4)CC3)n2)cn1 [Compound 39] | < 1 nM | 10 to 100 nM |
| Fc1ccc(Cc2cnc(N3CCN(c4ncnc(Nc5cnn(C[C@@H]6CNCCO6)c5)n4)CC3)nc2)cc1 [Compound 196] | < 1 nM | 10 to 100 nM |
| CC(C)(O)Cn1cc(Nc2ncnc(N3CCN(c4ncc(Cc5ccccc5)cn4)CC3)n2)cn1 [Compound 62] | < 1 nM | 10 to 100 nM |
| CN(C)S(=O)(=O)Cc1ccc(Nc2ncnc(N3CCN(c4ncc(Cc5ccccc5)cn4)CC3)n2)cc1 [Compound 252] | 1.01 to 10 nM | 10 to 100 nM |
| Cc1c(Nc2ncnc(N3CCN(c4ncc(C(C)c5ccccc5)cn4)CC3)n2)cnn1C[C@@H]1CNCCO1 (stereo partly drawn) [Compound 243] | 1.01 to 10 nM | 10 to 100 nM |
| OCc1nc(N2CCN(c3ncnc(Nc4ccc5c(c4)CNCC5)n3)CC2)ncc1Cc1ccccc1 [Compound 110] | < 1 nM | 10 to 100 nM |
| C[C@H](c1ccccc1)c1cnc(N2CCN(c3ncnc(Nc4ccc(N5CCC[C@@H](O)C5)cc4)n3)CC2)nc1 [Compound 223] | 1.01 to 10 nM | 10 to 100 nM |
| CC(C)(c1ccc(F)cc1)c1cnc(N2CCN(c3ncnc(Nc4cnn(C[C@@H]5CNCCO5)c4)n3)CC2)nc1 [Compound 267] | < 1 nM | 10 to 100 nM |
| COc1cc(Nc2ncnc(N3CCN(c4ncc(Cc5ccccc5)cn4)CC3)n2)ccn1 [Compound 17] | 1.01 to 10 nM | 1000 to 10000 nM |
| CC(c1ccccc1)c1cnc(N2CCN(c3ncnc(Nc4ccc5c(c4)CNCC5)n3)CC2)nc1 (stereo not drawn) [Compound 71] | < 1 nM | 10 to 100 nM |
| c1ccc(Cc2cnc(N3CCN(c4ncnc(Nc5ccc6c(c5)CNCC65CC5)n4)CC3)nc2)cc1 [Compound 97] | < 1 nM | 10 to 100 nM |
| c1ccc(Cc2cnc(N3CCN(c4ncnc(Nc5ccc(OC6CNC6)cc5)n4)CC3)nc2)cc1 [Compound 77] | 1.01 to 10 nM | 10 to 100 nM |
| O[C@H]1CCCN(c2ccc(Nc3ncnc(N4CCN(c5ncc(Cc6ccc(F)cc6)cn5)CC4)n3)cc2)C1 [Compound 240] | 1.01 to 10 nM | < 10 nM |
| CC(C)(O)c1ccc(Nc2ncnc(N3CCN(c4ncc([C@@](C)(N)c5ccc(F)cc5)cn4)CC3)n2)cc1 [Compound 193] | < 1 nM | < 10 nM |
| O=C(c1ccccc1)c1cnc(N2CCN(c3ncnc(Nc4cnn(CC5CNCCO5)c4)n3)CC2)nc1 (stereo not drawn) [Compound 178] | 1.01 to 10 nM | 100 to 1000 nM |
| c1ccc(Cc2cnc(N3CCN(c4ncnc(Nc5ccc(O[C@H]6CCCNC6)nc5)n4)CC3)nc2)cc1 [Compound 171] | 1.01 to 10 nM | 10 to 100 nM |
| OC[C@H](O)Cn1cc(Nc2ncnc(N3CCN(c4ncc(Cc5ccccc5)cn4)CC3)n2)cn1 [Compound 66] | < 1 nM | 10 to 100 nM |

| SMILES | IC50 [1] | IC50 [2] |
| --- | --- | --- |
| O[C@@H]1CCN(c2ccc(Nc3ncnc(N4CCN(c5ncc(Cc6ccccc6)cn5)CC4)n3)cc2)C[C@@H]1O [Compound 232] | < 1 nM | 10 to 100 nM |
| C[C@H](c1ccccc1)c1cnc(N2CCN(c3ncnc(Nc4cnn(C[C@@H]5CNCCO5)c4)n3)CC2)nc1 [Compound 186, N-(1-((S)-morpholin-2-ylmethyl)-1H-pyrazol-4-yl)-4-(4-(5-((R)-1-phenylethyl)pyrimidin-2-yl)piperazin-1-yl)-1,3,5-triazin-2-amine] | < 1 nM | 10 to 100 nM |
| Cc1c(Nc2ncnc(N3CCN(c4ncc(Sc5ccccc5F)cn4)[C@H](C)C3)n2)cnn1C[C@H](O)CO [Compound 264] | 1.01 to 10 nM | 100 to 1000 nM |
| Fc1ccccc1Oc1cnc(N2CCN(c3ncnc(Nc4cnn(C[C@@H]5CNCCO5)c4)n3)CC2)nc1 [Compound 203, (S)-4-(4-(5-(2-fluorophenoxyl)pyrimidin-2-yl)piperazin-1-yl)-N-(1-(morpholin-2-ylmethyl)-1H-pyrazol-4-yl)-1,3,5-triazin-2-amine] | 1.01 to 10 nM | 10 to 100 nM |
| CC1(C(O)c2ccc(Nc3ncnc(N4CCN(c5ncc(Cc6ccccc6)cn5)CC4)n3)cc2)COC1 (stereo not drawn) [Compound 172] | < 1 nM | 10 to 100 nM |
| c1ccc(Cc2cnc(N3CCN(c4ncnc(Nc5cnn(C[C@H]6COCCO6)c5)n4)CC3)nc2)cc1 [Compound 133] | < 1 nM | 10 to 100 nM |
| Cc1nn(C[C@@H]2CNCCO2)cc1Nc1ncnc(N2CCN(c3ncc(Cc4ccccc4)cn3)CC2)n1 [Compound 184] | 1.01 to 10 nM | 10 to 100 nM |
| CCN1CCO[C@H](Cn2cc(Nc3ncnc(N4CCN(c5ncc(Cc6ccccc6)cn5)CC4)n3)cn2)C1 [Compound 241] | 1.01 to 10 nM | 10 to 100 nM |
| Cc1[nH]ncc1Nc1ncnc(N2CCN(c3ncc(Sc4ccccc4F)cn3)CC2)n1 [Compound 20] | < 1 nM | 10 to 100 nM |
| O=S1(=O)Cc2ccc(Nc3ncnc(N4CCN(c5ncc(Cc6ccccc6)cn5)CC4)n3)cc2CN1 [Compound 192] | < 1 nM | < 10 nM |
| Fc1cc(N2CCNCC2)ccc1Nc1ncnc(N2CCN(c3ncc(Cc4ccccc4)cn3)CC2)n1 [Compound 175] | 1.01 to 10 nM | 1000 to 10000 nM |
| C[C@@](O)(c1ccccc1)c1cnc(N2CCN(c3ncnc(Nc4ccc(N5CCOCC5)cc4)n3)CC2)nc1 [Compound 234] | 1.01 to 10 nM | 10 to 100 nM |
| CC1(O)CCCN(c2ccc(Nc3ncnc(N4CCN(c5ncc(Cc6ccccc6)cn5)CC4)n3)cc2)C1 (stereo not drawn) [Compound 225] | 1.01 to 10 nM | 10 to 100 nM |
| OC[C@@H](O)COc1ccc(Nc2ncnc(N3CCN(c4ncc(Cc5ccccc5)cn4)CC3)n2)cc1 [Compound 129] | 1.01 to 10 nM | 10 to 100 nM |
| CN1CCNC[C@H]1Cn1cc(Nc2ncnc(N3CCN(c4ncc(Cc5ccccc5)cn4)CC3)n2)cn1 [Compound 176] | 1.01 to 10 nM | 10 to 100 nM |
| O[C@H]1CCN(c2ccc(Nc3ncnc(N4CCN(c5ncc(Cc6ccccc6)cn5)CC4)n3)cc2)C1 [Compound 112] | 1.01 to 10 nM | 100 to 1000 nM |
| OC[C@@H](O)c1ccc(Nc2ncnc(N3CCN(c4ncc(Cc5ccc(F)cc5)cn4)CC3)n2)cc1 [Compound 92] | < 1 nM | 10 to 100 nM |
| COc1cccc(Cc2cnc(N3CCN(c4ncnc(Nc5cnn(C[C@@H]6CNCCO6)c5)n4)CC3)nc2)c1 [Compound 249] | 1.01 to 10 nM | 10 to 100 nM |
| Fc1ccc(Cc2cnc(N3CCN(c4ncnc(Nc5ccc6c(c5)CNCC6)n4)CC3)nc2)c(F)c1 [Compound 138] | < 1 nM | 10 to 100 nM |
| C[C@@]1(O)CCCN(c2ccc(Nc3ncnc(N4CCN(c5ncc(Cc6ccccc6)cn5)CC4)n3)cc2)C1 [Compound 227] | 1.01 to 10 nM | 10 to 100 nM |
| c1ccc(Cc2cnc(N3CCN(c4ncnc(Nc5ccc(O[C@@H]6CCNC6)cc5)n4)CC3)nc2)cc1 [Compound 107] | < 1 nM | 10 to 100 nM |
| C[C@@H](c1ccccc1)c1cnc(N2CCN(c3ncnc(Nc4ccc(N5CCC[C@@H](O)C5)cc4)n3)CC2)nc1 [Compound 224] | < 1 nM | 10 to 100 nM |
